According to PubChem BioAssay AID248 (DTP/NCI, 2004):
Values joined by “and” are separate entries in the source; they are usually repeats but may differ in a detail not shown here. Identical values can stand only once. Toxic doses and inconclusive results are not listed. Cut-off read from the data, not from the text of the source: active = T/C of 150% or more; inactive = T/C below 125%.

Test system: L1210 leukemia ip in BDF1 mice, survival T/C
Assay: NCI In Vivo Anticancer Drug Screen. Data for tumor model L1210 Leukemia (intraperitoneal) in B6D2F1 (BDF1) mice
Conditions: endpoint: mean survival time, higher = longer survival
Outline: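 Read-out is survival time, reported as the treated-group measurement over the vehicle-control measurement.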

[1] = dose: 100.0 mg/kg/injection, schedule: Q04DX003 (ip), vehicle: saline
[2] = dose: 200.0 mg/kg/injection, schedule: Q04DX003 (ip), vehicle: saline
[3] = dose: 400.0 mg/kg/injection, schedule: Q04DX003 (ip), vehicle: saline
[4] = dose: 25.0 mg/kg/injection, schedule: Q01DX009 (ip), vehicle: Klucel (hydroxypropylcellulose) (HPC)
[5] = dose: 50.0 mg/kg/injection, schedule: Q01DX009 (ip), vehicle: Klucel (hydroxypropylcellulose) (HPC)
[6] = dose: 100.0 mg/kg/injection, schedule: Q01DX009 (ip), vehicle: Klucel (hydroxypropylcellulose) (HPC)
[7] = dose: 100.0 mg/kg/injection, schedule: Q04DX003 (ip), vehicle: Klucel (hydroxypropylcellulose) (HPC)
[8] = dose: 100.0 mg/kg/injection, schedule: Q01DX001 (ip), vehicle: carboxymethylcellulose (CMC)
[9] = dose: 200.0 mg/kg/injection, schedule: Q01DX001 (ip), vehicle: carboxymethylcellulose (CMC)
[10] = dose: 400.0 mg/kg/injection, schedule: Q01DX001 (ip), vehicle: carboxymethylcellulose (CMC)
[11] = dose: 100.0 mg/kg/injection, schedule: Q01DX001 (ip), vehicle: other
[12] = dose: 100.0 mg/kg/injection, schedule: Q01DX009 (ip), vehicle: saline with Tween-80
[13] = dose: 100.0 mg/kg/injection, schedule: Q04DX003 (ip), vehicle: saline with Tween-80
[14] = dose: 200.0 mg/kg/injection, schedule: Q01DX001 (ip), vehicle: other
[15] = dose: 200.0 mg/kg/injection, schedule: Q01DX009 (ip), vehicle: saline with Tween-80
[16] = dose: 200.0 mg/kg/injection, schedule: Q04DX003 (ip), vehicle: saline with Tween-80
[17] = dose: 400.0 mg/kg/injection, schedule: Q01DX009 (ip), vehicle: saline with Tween-80
[18] = dose: 400.0 mg/kg/injection, schedule: Q04DX003 (ip), vehicle: saline with Tween-80
[19] = dose: 100.0 mg/kg/injection, schedule: Q01DX001 (ip), vehicle: saline with Tween-80
[20] = dose: 100.0 mg/kg/injection, schedule: Q04DX002 (ip), vehicle: saline with Tween-80
[21] = dose: 200.0 mg/kg/injection, schedule: Q01DX001 (ip), vehicle: saline with Tween-80
[22] = dose: 200.0 mg/kg/injection, schedule: Q04DX002 (ip), vehicle: saline with Tween-80
[23] = dose: 400.0 mg/kg/injection, schedule: Q04DX002 (ip), vehicle: saline with Tween-80
[24] = dose: 400.0 mg/kg/injection, schedule: Q01DX001 (ip), vehicle: other
[25] = dose: 200.0 mg/kg/injection, schedule: Q04DX003 (ip), vehicle: Klucel (hydroxypropylcellulose) (HPC)

Measured: T/C

O=C(O)CCCC1CCC(=O)CC1
inactive: [1] 109 % of control | [2] 96 % of control | [3] 100 % of control

CC(=O)NCC1CCCCC1
inactive: [4] 98 % of control | dose: 25.0 mg/kg/injection, schedule: Q04DX003 (ip), vehicle: Klucel (hydroxypropylcellulose) (HPC) 100 % of control | [5] 92 % of control | dose: 50.0 mg/kg/injection, schedule: Q04DX003 (ip), vehicle: Klucel (hydroxypropylcellulose) (HPC) 102 % of control | [6] 110 % of control | [7] 105 % of control

CCOc1ccc(Br)cc1C1N(Cc2ccc(N(CCCl)CCCl)cc2C)CCCN1Cc1ccc(N(CCCl)CCCl)cc1C
inactive: [8] 106 % of control | [9] 101 % of control | [10] 108 % of control

CCOC(=O)C1C(=O)C(C(=O)Nc2ccccc2)C(=O)C(C(=O)OCC)C1c1ccc(O)cc1 (centres undefined)
inactive: [11] 91 % of control and 97 % of control | [12] 102 % of control and 100 % of control | [13] 103 % of control and 97 % of control | [14] 94 % of control and 91 % of control | [15] 96 % of control and 100 % of control | [16] 97 % of control | [17] 100 % of control and 101 % of control | [18] 97 % of control and 96 % of control

CC1CCC(C(C)C)C(NCc2ccccc2O)C1 (centres undefined)
inactive: [7] 89 % of control

COc1ccc(CSC(=S)Nc2ccc(Cl)c(Cl)c2)cc1
inactive: dose: 50.0 mg/kg/injection, schedule: Q04DX003 (ip), vehicle: saline 101 % of control | [1] 108 % of control | [2] 93 % of control

CN(C)CCCC1(O)c2ccccc2Sc2cc(Cl)ccc21 (centres undefined)
inactive: [4] 91 % of control | dose: 25.0 mg/kg/injection, schedule: Q04DX002 (ip), vehicle: Klucel (hydroxypropylcellulose) (HPC) 96 % of control | [5] 91 % of control | dose: 50.0 mg/kg/injection, schedule: Q04DX002 (ip), vehicle: Klucel (hydroxypropylcellulose) (HPC) 99 % of control | [6] 100 % of control | dose: 100.0 mg/kg/injection, schedule: Q04DX002 (ip), vehicle: Klucel (hydroxypropylcellulose) (HPC) 101 % of control | dose: 150.0 mg/kg/injection, schedule: Q01DX009 (ip), vehicle: Klucel (hydroxypropylcellulose) (HPC) 97 % of control | dose: 225.0 mg/kg/injection, schedule: Q01DX009 (ip), vehicle: Klucel (hydroxypropylcellulose) (HPC) 90 % of control

Cn1ncc(=O)[nH]c1=O
inactive: dose: 50.0 mg/kg/injection, schedule: Q01DX009 (ip), vehicle: saline 100 % of control | dose: 100.0 mg/kg/injection, schedule: Q01DX009 (ip), vehicle: saline 108 % of control | dose: 200.0 mg/kg/injection, schedule: Q01DX009 (ip), vehicle: saline 103 % of control

CCCCCCCCCCCC(=O)NC(=S)NCc1cccnc1
inactive: [19] 92 % of control | [12] 101 % of control and 105 % of control | [20] 98 % of control and 100 % of control | [21] 93 % of control | [15] 99 % of control and 107 % of control | [22] 108 % of control and 112 % of control | dose: 400.0 mg/kg/injection, schedule: Q01DX001 (ip), vehicle: saline with Tween-80 98 % of control | [17] 96 % of control and 108 % of control | [23] 105 % of control

Clc1ccc2c(c1)Sc1ccccc1O2
inactive: [20] 101 % of control | [22] 101 % of control | [23] 97 % of control

CN(C)C(N)=Nc1ccc(Cl)cc1
inactive: dose: 12.5 mg/kg/injection, schedule: Q01DX009 (ip), vehicle: Klucel (hydroxypropylcellulose) (HPC) 97 % of control | [4] 98 % of control | [5] 89 % of control

CCS(=O)(=O)c1ccc(NC(=O)OC2CCCC2)cc1
inactive: [11] 100 % of control | [14] 96 % of control | [24] 89 % of control

CCOC(=O)c1c(O)[nH]c(=O)c(Br)c1C
inactive: dose: 100.0 mg/kg/injection, schedule: Q01DX001 (ip), vehicle: saline 109 % of control | [1] 89 % of control | dose: 200.0 mg/kg/injection, schedule: Q01DX001 (ip), vehicle: saline 120 % of control | [2] 89 % of control | dose: 400.0 mg/kg/injection, schedule: Q01DX001 (ip), vehicle: saline 117 % of control | [3] 90 % of control

O=[N+]([O-])c1cc([N+](=O)[O-])c2nn(-c3ccccc3)[n+]([O-])c2c1
inactive: [7] 101 % of control | [25] 97 % of control | dose: 400.0 mg/kg/injection, schedule: Q04DX003 (ip), vehicle: Klucel (hydroxypropylcellulose) (HPC) 98 % of control

Cc1ccc2cccc(CC(=O)NN)c2c1
inactive: dose: 50.0 mg/kg/injection, schedule: Q01DX001 (ip), vehicle: saline with Tween-80 92 % of control | dose: 50.0 mg/kg/injection, schedule: Q01DX009 (ip), vehicle: saline with Tween-80 102 % of control | dose: 50.0 mg/kg/injection, schedule: Q04DX003 (ip), vehicle: saline with Tween-80 92 % of control | [19] 92 % of control | [12] 102 % of control | [20] 93 % of control | [13] 90 % of control | [21] 103 % of control | [15] 111 % of control | [22] 98 % of control | [16] 89 % of control

CC(=O)Oc1ccc(OC(C)=O)c2c1C(=O)CCCC2=O
inactive: [12] 101 % of control | [13] 91 % of control | [15] 93 % of control | [16] 91 % of control | [17] 96 % of control | [18] 96 % of control

NNC(=O)CNc1ccc(F)c(Cl)c1
inactive: dose: 25.0 mg/kg/injection, schedule: Q04DX002 (ip), vehicle: saline + alcohol 113 % of control | dose: 50.0 mg/kg/injection, schedule: Q04DX002 (ip), vehicle: saline + alcohol 95 % of control | dose: 100.0 mg/kg/injection, schedule: Q04DX002 (ip), vehicle: saline + alcohol 98 % of control and 123 % of control

CCOc1ccccc1/C=C1N=C(/C=C/c2ccccc2)OC\1=O
inactive: [20] 92 % of control | [22] 89 % of control | [23] 97 % of control

C1=CC2OC1c1ccccc12
inactive: dose: 50.0 mg/kg/injection, schedule: Q01DX001 (ip), vehicle: carboxymethylcellulose (CMC) 95 % of control | [8] 92 % of control | [9] 106 % of control | [10] 97 % of control

CCCCCCCCCCCC(=O)NC(=S)Nc1cccc2ccccc12
inactive: [7] 90 % of control | [25] 97 % of control

CC1CC2(CCC1=O)OCCO2 (centres undefined)
inactive: [11] 95 % of control | [14] 95 % of control | [24] 96 % of control
